The record followed here is DBAASP.

Common to all, as to assay: ≥ marks a high value that may be exact or a test limit, other limits are often not marked, values filed in µg/mL are converted to µM
The subject of experiment [1] is Staphylococcus capitis 1.
Experiment [2] concerns Escherichia coli ATCC 25922.
Experiment [3] deals with Staphylococcus aureus Cowan 1.
For experiment [4], the system named is Candida albicans ATCC 10231.
In experiment [5] the test system is Bacillus megaterium Bm11.
For experiment [6], the system named is Yersinia pseudotuberculosis YPIII.
For experiment [7], the system named is Candida albicans CCARM 14007.
The subject of experiment [8] is Listeria monocytogenes KCTC 3710.
Experiment [9] relates to Bacillus subtilis KCTC 1918.
The subject of experiment [10] is Salmonella typhimurium CCARM 8009.
For experiment [11], the system named is Candida albicans ATCC 64550.
Experiment [12] has as its system Salmonella typhimurium CCARM 8007.
Experiment [13] concerns Escherichia coli KCTC 1682.
The subject of experiment [14] is Salmonella typhimurium KCTC 1926.
In experiment [15] the test system is Staphylococcus aureus CCARM 3114.
Experiment [16] relates to Staphylococcus aureus CCARM 3108.
The subject of experiment [17] is Staphylococcus aureus KCTC 1621.
Experiment [18] relates to Staphylococcus aureus CCARM 3089.
Experiment [19] has as its system Candida albicans CCARM 14001.
Experiment [20] concerns Escherichia coli CCARM 1229.
For experiment [21], the system named is Salmonella typhimurium CCARM 8013.
Experiment [22] deals with Pseudomonas aeruginosa KCTC 1637.
For experiment [23], the system named is Staphylococcus aureus CCARM 3126.
For experiment [24], the system named is Staphylococcus aureus CCARM 3090.
Experiment [25] has as its system Escherichia coli CCARM 1238.
Experiment [26] concerns Cutibacterium acnes ATCC 11827.
In experiment [27] the test system is Cryptococcus neoformans.
Experiment [28] concerns Pseudomonas aeruginosa 1412.
For experiment [29], the system named is Staphylococcus aureus.
The subject of experiment [30] is Arcyria cinerea.
For experiment [31], the system named is Candida glabrata 0902.
The subject of experiment [32] is Escherichia coli 1334.
Experiment [33] has as its system Escherichia coli.
For experiment [34], the system named is Serratia marcescens.
Experiment [35] concerns Acinetobacter baumannii.
Experiment [36] deals with Escherichia coli 1375.
Experiment [37] concerns Staphylococcus aureus ATCC 2592.
Experiment [38] deals with Klebsiella pneumoniae.
Experiment [39] relates to Pseudomonas aeruginosa 1413.
Experiment [40] concerns Proteus vulgaris.
The test system of experiment [41] is Proteus mirabilis.
Experiment [42] deals with Enterococcus faecalis 981.
Experiment [43] deals with Staphylococcus haemolyticus.
The test system of experiment [44] is Aeromonas sobria.
Experiment [45] deals with Escherichia coli 1342.
Experiment [46] deals with Staphylococcus epidermidis.
Experiment [47] deals with Staphylococcus aureus 1303.
In experiment [48] the test system is Escherichia coli 1335.
Experiment [49] deals with Staphylococcus aureus 1350.
For experiment [50], the system named is Salmonella enterica subsp. enterica serovar Typhi.
The subject of experiment [51] is Enterococcus faecium 1299.
Experiment [52] relates to Candida albicans ATCC 2002.
Experiment [53] relates to Staphylococcus aureus 1307.
Experiment [54] concerns Pseudomonas aeruginosa ATCC 27853.
For experiment [55], the system named is Stenotrophomonas maltophilia.
Experiment [56] has as its system Pseudomonas aeruginosa 1411.
Experiment [57] deals with Klebsiella pneumoniae 1400.

≈ marks a conversion by molar mass, not a printed value. Where “and” joins values, the source holds several entries; their conditions need not be identical. Equal entries are not always repeated.

As to `CC[C@H](C)[C@H](NC(=O)CNC(=O)[C@H](CO)NC(=O)[C@H](CC(C)C)NC(=O)[C@@H](NC(=O)[C@H](CCCN=C(N)N)NC(=O)CNC(=O)[C@@H](NC(=O)[C@H](CC(C)C)NC(=O)[C@@H]1CCCN1C(=O)[C@H](CC(C)C)NC(=O)[C@H](C)N)[C@@H](C)CC)C(C)C)C(=O)N[C@@H](CC(C)C)C(N)=O` [ALPLIGRVLSGIL], the MIC was at least 40 µM in experiment [1]; above 40 µM in [2]; at least 40 µM in experiment [3]; above 40 µM in experiment [4]; 20 µM (≈ 26.4 µg/mL) in experiment [5]; at least 40 µM in experiment [6].
As to `NCCCC[C@H](NC(=O)[C@H](Cc1c[nH]c2ccccc12)NC(=O)[C@H](CCCCN)NC(=O)[C@H](Cc1c[nH]c2ccccc12)NC(=O)[C@H](CCCCN)NC(=O)[C@H](Cc1c[nH]c2ccccc12)NC(=O)[C@@H](N)CCCCN)C(=O)N[C@@H](Cc1c[nH]c2ccccc12)C(N)=O` [KWKWKWKW], the MIC in [7] is at least 32 µM; in experiment [8], 3.12 µM (≈ 3.98 µg/mL); in experiment [9] it was 6.25 µM and 12.5 µM; in [10], 6.25 µM and 12.5 µM; in experiment [11] it was at least 50 µM; in [12] it was 12.5 µM (≈ 15.9 µg/mL). Besides, the minimal inhibitory concentration (MIC) was 6.25 µM and 12.5 µM in [13]; 1.56 µM (≈ 1.99 µg/mL) in experiment [14]; 12.5 µM (≈ 15.9 µg/mL) in experiment [15]; 12.5 µM (≈ 15.9 µg/mL) in experiment [16]; 6.25 µM and 12.5 µM in [17]; 12.5 µM (≈ 15.9 µg/mL) in experiment [18]. In addition, the MIC is at least 32 µM in experiment [19]; 6.25 µM and 12.5 µM in [20]; 6.25 µM and 12.5 µM in experiment [21]; 3.12 µM (≈ 3.98 µg/mL) in [22]; 12.5 µM (≈ 15.9 µg/mL) in experiment [23]; 12.5 µM (≈ 15.9 µg/mL) in experiment [24]. In addition, the MIC in experiment [25] amounted to 12.5 µM (≈ 15.9 µg/mL).
As to `CC[C@H](C)[C@H](NC(=O)[C@H](C)NC(=O)[C@H](CCCN=C(N)N)NC(=O)[C@H](Cc1ccc(O)cc1)NC(=O)[C@H](CC(C)C)NC(=O)[C@H](CC(N)=O)NC(=O)[C@H](Cc1ccc(O)cc1)NC(=O)CNC(=O)[C@H](C)NC(=O)[C@@H](NC(=O)[C@@H](NC(=O)[C@@H](NC(=O)[C@H](CCCN=C(N)N)NC(=O)[C@@H](NC(=O)[C@@H](NC(=O)[C@@H](NC(=O)[C@@H]1CCCN1C(=O)[C@H](Cc1c[nH]c2ccccc12)NC(=O)[C@H](Cc1ccccc1)NC(=O)[C@H](CCCN=C(N)N)NC(=O)[C@H](CCCCN)NC(=O)[C@@H](NC(=O)[C@@H](N)CCCN=C(N)N)[C@@H](C)CC)C(C)C)C(C)C)[C@@H](C)CC)[C@@H](C)O)C(C)C)C(C)C)C(=O)N[C@@H](CCCCN)C(=O)N[C@@H](CCCCN)C(=O)N[C@@H](CCCCN)C(=O)O` [RIKRFWPVVIRTVVAGYNLYRAIKKK], the MIC in experiment [26] is 0.74 µM (≈ 2.35 µg/mL); in experiment [27], 23.6 µM (≈ 75 µg/mL); in experiment [28], 2.95 µM and 5.9 µM; in experiment [29], 0.74 µM and > 0.37 µM; in experiment [30], 0.37 µM and 0.74 µM; in experiment [31] it was 5.9 µM (≈ 18.7 µg/mL). Besides, the minimal inhibitory concentration (MIC) in experiment [32] is 2.95 µM (≈ 9.37 µg/mL); in [33] it was 1.48 µM (≈ 4.7 µg/mL); in [2], 1.48 µM (≈ 4.7 µg/mL); in experiment [34], 31.5 µM and 23.6 µM; in experiment [35] it was 1.48 µM and 1.05 µM; in experiment [36], 2.95 µM (≈ 9.37 µg/mL). The MIC was 0.18 µM (≈ 0.572 µg/mL) in experiment [37]; 2.95 µM and 5.9 µM in experiment [38]; 2.95 µM (≈ 9.37 µg/mL) in experiment [39]; 23.6 µM (≈ 75 µg/mL) in [40]; 1.48 µM (≈ 4.7 µg/mL) in [41]; 2.95 µM and 1.48 µM in [42]. Further, the MIC was 0.09 µM (≈ 0.286 µg/mL) in [43]; 1.48 µM (≈ 4.7 µg/mL) in experiment [44]; 0.74 µM and 1.48 µM in experiment [45]; 2.95 µM (≈ 9.37 µg/mL) in [46]; 2.95 µM and 1.48 µM in [47]; 1.48 µM (≈ 4.7 µg/mL) in experiment [48]. In addition, the minimum inhibitory concentration (MIC) is 1.48 µM (≈ 4.7 µg/mL) in experiment [49]; 5.9 µM (≈ 18.7 µg/mL) in experiment [50]; 1.48 µM (≈ 4.7 µg/mL) in experiment [51]; 0.18 µM and 0.37 µM in [52]; 2.95 µM (≈ 9.37 µg/mL) in experiment [53]; 5.9 µM and > 2.95 µM in experiment [54]. In addition, the MIC in experiment [55] was 2.95 µM (≈ 9.37 µg/mL); in experiment [56], 1.48 µM and 2.95 µM; in experiment [57], 4.17 µM (≈ 13.2 µg/mL).
